Assay results as given in US5869512A, “Azole compounds with antimycotic activity for human and veterinary use” (Zambon Group S.p.A, priority 1996, dated 1999).
In brackets after ≈: the same amount, converted by molar mass. Read-outs that look alike come from different tables or passages of the source.

Columns and labels:
T. mentagrophytes = assay: In vitro growth inhibition, macromethod of scalar broth dilution (SDB); format: cell-based, Trichophyton mentagrophytes; conditions: for MIC: Trichophyton mentagrophytes, 168 h, read-out: MIC (minimum inhibiting concentration)
From the text: (§1) A) The activity inhibiting the growth of mycetes has been evaluated by the macromethods of the scalar broth dilution in geometrical progression (M. R. McGinnis and M. G. Rinaldi, "Antimycotic drugs: mechanisms of action, drug resistance, susceptibility testing and assay of activity in biological fluids", in Antibiotic in Laboratory Medicine, Ed. V. Lorian, Baltimore 1991).
(§2) As growing medium Yeast Nitrogen Base broth (YNB) and Sabouraud Dextrose broth (SDB) were employed for yeasts and moulds respectively.
(§3) Fluconazole has been taken as reference compound.

C. neoformans = assay: In vitro growth inhibition, macromethod of scalar broth dilution (YNB); format: cell-based, Cryptococcus neoformans
From the text: as §1, §2, §3

C. albicans 1040 = assay: as above; format: cell-based, Candida albicans
From the text: as §1, §2, §3

A. fumigatus [1] = assay: In vitro growth inhibition, macromethod of scalar broth dilution (SDB); format: cell-based, Aspergillus fumigatus; conditions: for MIC: Aspergillus fumigatus, 168 h, read-out: MIC (minimum inhibiting concentration)
From the text: as §1, §2, §3

Candida albicans 1040 = assay: In vivo oral antimycotic effectiveness, systemic candidiasis; parameters: species or system mice (Albino Charles River, CD1 strain); conditions: mice, oral at 0, 4, 24, 48 hours after i.v. infection; for PD50 (medium protective dose) at the 14th day: 20160 min; for ED50: Candida albicans, 1040, in Mus musculus, po, 336 h, read-out: PD50 (medium protective dose) at the 14th day
Experimental: (§4) Albino Charles River mice (CD1 strain) weighing from 23 to 25 g, normally feed with a standard diet and water ad libitum were employed.
(§5) Each animal has been intravenously (for systemic candidiasis, crytpococcosis, aspergillosis), intracranially (for intracranial cryptococcosis) or nasally (for pulmonary aspergillosis) treated with a suspension (0.2 ml containing 2.5×10^7 cells/ml) of the due microorganism in physiological. Right after the injection and after 4, 24 and 48 hours the animals has been orally administered (in 2% Arabic gum) geometrically progressive increasing doses of the compound under test. An infected group has been used as control.
(§6) The mortality monitoring of the mice has been prolonged up to 14 days. The medium protective dose (PD50) has been calculated by the probits analysis (L. Lison--"Statistica applicata alla biologia sperimentale. La programmazione dell'esperimento e l'analisi dei risultati"--Casa Editrice Ambrosiana, 1961) on the basis of the number of animals survived at each concentration.
(§7) Fluconazole and Itraconazole were taken as reference compounds.

A. corymbifera = assay: In vitro antimycotic activity, dilution in agar (mycetes); format: cell-based, Absidia corymbifera; conditions: casitone agar pH 7, 32° C., 1-10 days
Experimental: (§8) B) The activity inhibiting the growth of yeasts and filamentosous fungi has been evaluated by the method of the dilution in agar. The minimum inhibiting concentration at 50% (MIC50) was measured by incorporating into the growing medium decreasing concentrations of the tested compounds thus yielding scalar concentration on basis 2, from […].
(§9) As growing medium casitone agar buffered at pH=7 (casitone 9 g, glucose 20 g, sodium citrate 10 g, leaven extract 5 g, agar 18 g, potassium biphosphate 0.54 g, sodium biphosphate 3.34 g, distilled water 1,000 ml) was employed.
(§10) For evaluating the activity against the mycetes the growing mediums containing the scalar concentrations of the compounds to be tested were inoculated with 1 μl of a suspension of 5×10^5 of spores/ml (conides or endospores) obtained from duly sporulated coltures. The inoculated growing mediums were incubated at 32° C. and the measurements were effected after 1, 2, 3, 5, 7 and 10 days.
(§11) Fluconazole, Itraconazole and Amphotericin B have been taken as reference compounds.

A. terreus = assay: as above; format: cell-based, Aspergillus terreus; conditions: casitone agar pH 7, 32° C., 1-10 days
Experimental: as §8, §9, §10, §11

R. pusillus = assay: as above; format: cell-based, Rhyzomucor pusillus; conditions: casitone agar pH 7, 32° C., 1-10 days
Experimental: as §8, §9, §10, §11

Mucor = assay: as above; format: cell-based; conditions: casitone agar pH 7, 32° C., 1-10 days
Experimental: as §8, §9, §10, §11

Pseudoallescheria = assay: as above; format: cell-based; conditions: casitone agar pH 7, 32° C., 1-10 days
Experimental: as §8, §9, §10, §11

Acremonium = assay: as above; format: cell-based; conditions: casitone agar pH 7, 32° C., 1-10 days
Experimental: as §8, §9, §10, §11

Trichoderma = assay: as above; format: cell-based; conditions: casitone agar pH 7, 32° C., 1-10 days
Experimental: as §8, §9, §10, §11

A. alliaceus = assay: as above; format: cell-based, Aspergillus alliaceus; conditions: casitone agar pH 7, 32° C., 1-10 days
Experimental: as §8, §9, §10, §11

A. flavusalis = assay: as above; format: cell-based, Aspergillus flavus; conditions: casitone agar pH 7, 32° C., 1-10 days
Experimental: as §8, §9, §10, §11

A. fumigatus [2] = assay: as above; format: cell-based, Aspergillus fumigatus; conditions: casitone agar pH 7, 32° C., 1-10 days
Experimental: as §8, §9, §10, §11

A. niger = assay: as above; format: cell-based, Aspergillus niger; conditions: casitone agar pH 7, 32° C., 1-10 days
Experimental: as §8, §9, §10, §11

F. verticilloides = assay: as above; format: cell-based, Fusarium verticilloides; conditions: casitone agar pH 7, 32° C., 1-10 days
Experimental: as §8, §9, §10, §11

F. proliferatum = assay: as above; format: cell-based, Fusarium proliferatum; conditions: casitone agar pH 7, 32° C., 1-10 days
Experimental: as §8, §9, §10, §11

[3] = tested on: Cryptococcus neoformans 3443; assay: In vivo oral antimycotic effectiveness, systemic cryptococcosis; parameters: species or system mice (Albino Charles River, CD1 strain); conditions: 336 h, mice, oral at 0, 4, 24, 48 hours after i.v. infection, read-out: PD50 (medium protective dose) at the 14th day
Experimental: as §4, §5, §6, §7

[4] = tested on: Aspergillus fumigatus MOL-4; assay: In vivo oral antimycotic effectiveness, pulmonary aspergillosis; parameters: species or system mice (Albino Charles River, CD1 strain); conditions: MOL4, 336 h, mice, oral at 0, 4, 24, 48 hours after nasal infection, read-out: PD50 (medium protective dose) at the 14th day
Experimental: as §4, §5, §6, §7

[5] = tested on: Aspergillus fumigatus MOL-4; assay: In vivo oral antimycotic effectiveness, systemic aspergillosis; parameters: species or system mice (Albino Charles River, CD1 strain); conditions: MOL4, 336 h, mice, oral at 0, 4, 24, 48 hours after i.v. infection, read-out: PD50 (medium protective dose) at the 14th day
Experimental: as §4, §5, §6, §7

[6] = tested on: Cryptococcus neoformans ISM; assay: In vivo oral antimycotic effectiveness, intracranial cryptococcosis; parameters: species or system mice (Albino Charles River, CD1 strain); conditions: 336 h, mice, oral at 0, 4, 24, 48 hours after intracranial infection, read-out: PD50 (medium protective dose) at the 14th day
Experimental: as §4, §5, §6, §7

[7] = T. mentagrophytes, SDB, 28° C., 7 days, 2A, 3A, 3B tested as nitrates
[8] = C. neoformans, YNB, 35° C., 48 hours, 2A, 3A, 3B tested as nitrates
[9] = C. albicans 1040, YNB, 35° C., 48 hours, 2A, 3A, 3B tested as nitrates
[10] = A. fumigatus, SDB, 28° C., 7 days, 2A, 3A, 3B tested as nitrates
[11] = Cryptococcus neoformans, 48 h, C. neoformans, YNB, 35° C., 48 hours, 2A, 3A, 3B tested as nitrates, read-out: IC50
[12] = Candida albicans, 1040, 48 h, C. albicans 1040, YNB, 35° C., 48 hours, 2A, 3A, 3B tested as nitrates, read-out: IC50

Compound | ED50 [3] [mg/kg] | MIC (T. mentagrophytes; [7]) [µg/mL] | IC50 (C. neoformans; [11]) [µg/mL] | ED50 [4] [mg/kg] | ED50 [5] [mg/kg] | ED50 [6] [mg/kg] | MIC (A. fumigatus [1]; [10]) [µg/mL] | ED50 (Candida albicans 1040) [mg/kg] | also measured
CC(C)(COC(F)(F)C(F)F)C(O)(Cn1cncn1)c1ccc(F)cc1F (single isomer, unassigned; (+)) [Compound 1B] | – | – | – | – | – | – | – | – | MIC (minimum inhibiting concentration) (T. mentagrophytes; [7]): 32 µg/mL (≈ 80.5 µM); IC50 (C. neoformans; [8]): 1 µg/mL (≈ 2.52 µM); IC50 (C. albicans 1040; [9]): 1 µg/mL (≈ 2.52 µM); MIC (minimum inhibiting concentration) (A. fumigatus [1]; [10]): > 128 µg/mL; PD50 (medium protective dose) at the 14th day (Candida albicans 1040): > 2 mg/kg/os
CC(C)(COC(F)(F)C(F)F)C(O)(Cn1cncn1)c1ccc(F)cc1F (single isomer, unassigned; (-)) [Compound 1A, (-) 2-(2,4-difluorophenyl)-4-(1,1,2-tetrafluoroethoxy)-3,3-dimethyl-1-(1H-1,2,4-triazol-1-yl)-2-butanol] | – | – | – | – | – | – | – | – | MIC (minimum inhibiting concentration) (T. mentagrophytes; [7]): 0.125 µg/mL (≈ 0.315 µM); IC50 (C. neoformans; [8]): 0.0078 µg/mL (≈ 0.0196 µM); IC50 (C. albicans 1040; [9]): 0.0078 µg/mL (≈ 0.0196 µM); MIC (minimum inhibiting concentration) (A. fumigatus [1]; [10]): 4 µg/mL (≈ 10.1 µM); PD50 (medium protective dose) at the 14th day (Candida albicans 1040): 0.64 mg/kg/os
C[C@@H]1[C@H](O)[C@@H](C)/C=C/C=C/C=C/C=C/C=C/C=C/C=C/[C@H](O[C@@H]2O[C@H](C)[C@@H](O)[C@H](N)[C@@H]2O)C[C@@H]2O[C@](O)(C[C@@H](O)C[C@@H](O)[C@H](O)CC[C@@H](O)C[C@@H](O)CC(=O)O[C@H]1C)C[C@H](O)[C@H]2C(=O)O [Amphotericin B] | – | – | – | – | – | – | – | – | MIC50 (A. corymbifera): 0.06 µg/mL (≈ 0.0649 µM); MIC50 (A. terreus): 0.25 µg/mL (≈ 0.271 µM); MIC50 (R. pusillus): 0.06 µg/mL (≈ 0.0649 µM); MIC50 (Mucor): 0.03 µg/mL (≈ 0.0325 µM); MIC50 (Pseudoallescheria): 8 µg/mL (≈ 8.66 µM); MIC50 (Acremonium): 16 µg/mL (≈ 17.3 µM); MIC50 (Trichoderma): 1 µg/mL (≈ 1.08 µM); MIC50 (A. alliaceus): 16 µg/mL (≈ 17.3 µM); MIC50 (A. flavusalis): 0.25 µg/mL (≈ 0.271 µM); MIC50 (A. fumigatus [2]): 0.25 µg/mL (≈ 0.271 µM); MIC50 (A. niger): 0.12 µg/mL (≈ 0.13 µM); MIC50 (F. verticilloides): 2 µg/mL (≈ 2.16 µM); MIC50 (F. proliferatum): 1 µg/mL (≈ 1.08 µM)
C[C@@H](COC(F)(F)C(F)F)[C@](O)(Cn1cncn1)c1ccc(F)cc1F [Compound 2A, (-) (2R,3S)-2-(2,4-difluorophenyl)-4-(1,1,2,2-tetrafluoroethoxy)-3-methyl-1-(1H-1,2,4-triazol-1-yl)-2-butanol] | 8.84 | 0.25 (≈ 0.652 µM) | 0.0312 (≈ 0.0814 µM) | 9.3 | 3.5 | 14.6 | 8 (≈ 20.9 µM) | 0.32 | –
C[C@@H](COC(F)(F)C(F)F)[C@](O)(Cn1cncn1)c1ccc(Cl)cc1Cl [Compound 3A, (-) (2R,3S)-2-(2,4-dichlorophenyl)-4-(1,1,2,2-tetrafluoroethoxy)-3-methyl-1-(1H-1,2,4-triazol-1-yl)-2-butanol] | 5.48 | 0.0625 (≈ 0.15 µM) | 0.0078 (≈ 0.0187 µM) | 6.9 | 4.5 | 12.5 | 2 (≈ 4.81 µM) | 0.38 | IC50 (C. albicans 1040; [12]): 0.0078 µg/mL (≈ 0.0187 µM)
C[C@H](COC(F)(F)C(F)F)[C@@](O)(Cn1cncn1)c1ccc(Cl)cc1Cl [Compound 3B, (+) (2S,3R)-2-(2,4-dichlorophenyl)-4-(1,1,2,2-tetrafluoroethoxy)-3-methyl-1-(1H-1,2,4-triazol-1-yl)-2-butanol] | – | 16 (≈ 38.4 µM) | 1 (≈ 2.4 µM) | – | – | – | > 128 | 4.57 | IC50 (C. albicans 1040; [12]): 0.25 µg/mL (≈ 0.601 µM)
OC(Cn1cncn1)(Cn1cncn1)c1ccc(F)cc1F [Fluconazole, reference compound] | 63.2 | – | – | > 100 | – | 22.3 | – | 0.61 | MIC (T. mentagrophytes): 16 µg/mL (≈ 52.2 µM); IC50 (C. neoformans; Cryptococcus neoformans, 48 h): 2 µg/mL (≈ 6.53 µM); IC50 (C. albicans 1040; Candida albicans, 1040, 48 h): 0.5 µg/mL (≈ 1.63 µM); MIC (A. fumigatus [1]): > 128 µg/mL
CCC(C)n1ncn(-c2ccc(N3CCN(c4ccc(OCC5COC(Cn6cncn6)(c6ccc(Cl)cc6Cl)O5)cc4)CC3)cc2)c1=O (stereo not shown) [Itraconazole, reference compound] | > 50 | – | – | > 20 | 10.2 | > 25 | – | 1.74 | –
